Reference: ChEMBL document CHEMBL1201862, “PubChem BioAssay data set” (2004)
Active and inactive are the calls of the source.

Tests used:
[1] = AlphaScreen signal interference compounds, dose response, artefact control for ARNT-TACC3 interaction inhibitor project, biochemical, luminescence, cherry-pick (AID 651705); assay type: functional;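 further: AlphaScreen bead proximity signal that flags compounds interfering with the detection technology; potency reflects signal decrease which marks the compound as an assay artifact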
H9c2 = assay: cells; assay type: functional, cell-based; conditions: Rattus norvegicus, H9c2, Myocardium;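 further: confirmatory concentration-response retest of ultra-high-throughput screening hits for modulation of myocardial damage; cell death induced by hydrogen peroxide oxidative stress; compound pretreatment for 60 min then peroxide exposure for 2 h; potency is for protecting the cells against peroxide damage rather than for killing them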
[2] = target: Mitogen-activated protein kinase 13 (Homo sapiens, UniProt O15264); assay type: functional
[3] = target: Cyclin-dependent kinase 7 (Homo sapiens, UniProt P50613); assay type: functional;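 further: value comes from a kinome-wide kinase profiling panel in which CDK7 is one member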
[4] = target: Cyclin-dependent kinase 9 (Homo sapiens, UniProt P50750); assay type: functional;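 further: value from the CDK9 entry of a kinome-spanning kinase panel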
[5] = target: Cyclin-dependent kinase 8 (Homo sapiens, UniProt P49336); assay: Navigating the Kinome. Panel member name: CDK8; assay type: functional
[6] = target: Serine/threonine-protein phosphatase (Candida dubliniensis (strain CD36 / CBS 7987 / NCPF 3949 / NRRLY-17841) (Yeast), UniProt B9W6M3); assay: calcineurin pathway inhibitors in yeast reporter, dose response, S. cerevisiae, CDRE-lacZ, luminescence, secondary (AID 2388); assay type: functional, cell-based;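 further: yeast reporter cells carrying a calcineurin-responsive lacZ construct stimulated with calcium chloride; luminescent beta-galactosidase reporter signal in whole cells rather than isolated phosphatase activity; potency for inhibition where a drop in reporter signal means calcineurin blockade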
Streptokinase A = target: T1, Streptokinase A (Streptococcus pyogenes serotype M1, UniProt P10520); assay: S. pyogenes streptokinase expression inhibitors, potency, dose response, plasminogen activation absorbance, OD405 (AID 1914); assay type: functional, Streptococcus pyogenes M1 GAS;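 further: secreted streptokinase activity via plasminogen activation per viability signal from cell pellet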
T1 sequence (P10520 whole entry): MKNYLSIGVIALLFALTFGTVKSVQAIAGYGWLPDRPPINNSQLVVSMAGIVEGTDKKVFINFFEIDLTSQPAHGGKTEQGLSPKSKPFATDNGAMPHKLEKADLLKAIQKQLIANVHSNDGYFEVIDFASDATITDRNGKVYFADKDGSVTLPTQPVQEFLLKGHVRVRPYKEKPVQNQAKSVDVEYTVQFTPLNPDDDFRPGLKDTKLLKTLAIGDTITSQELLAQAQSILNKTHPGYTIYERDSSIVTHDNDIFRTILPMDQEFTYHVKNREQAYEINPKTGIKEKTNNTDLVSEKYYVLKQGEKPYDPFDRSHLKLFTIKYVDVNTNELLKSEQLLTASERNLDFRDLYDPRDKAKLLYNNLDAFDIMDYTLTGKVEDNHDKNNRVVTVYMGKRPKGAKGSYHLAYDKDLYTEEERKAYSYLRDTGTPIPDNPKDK

[7] = target: ATP-dependent molecular chaperone HSP82 (Candida albicans (strain WO-1) (Yeast), UniProt C4YTQ8); assay: loss of DOC-induced GRE-beta-galactosidase reporter signal, dose response, Hsp90 inhibitor project, S. cerevisiae, luminescence (AID 2400); assay type: functional, cell-based;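 further: beta-galactosidase luminescence from glucocorticoid response element reporter as proxy for Hsp90 function; inhibitor potency where signal loss means Hsp90 inhibition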
[8] = StAR promoter reporter inhibition counter-screen, dose response, counter-screen for LRH-1 inverse agonist project, cell-based, luminescence, luciferase reporter (AID 651969); assay type: functional
[9] = target: Nuclear receptor subfamily 5 group A member 2 (Homo sapiens, UniProt O00482); assay type: functional, cell-based;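 further: HEK293T cells transfected with LRH-1 and a StAR promoter luciferase reporter; potency for inhibitors that lower LRH-1 driven reporter light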
Steroidogenic factor 1 = Steroidogenic factor 1 (Homo sapiens, UniProt Q13285); assay: Counterscreen for inverse agonists of the liver receptor homolog-1 (LRH-1; NR5A2): Luminescence-based cell-based high throughput dose response assay to identify inverse agonists of the Steroidogenic Factor 1 Nuclear Receptor (SF1; NR5A1).; assay type: functional
Interleukin-8 = Interleukin-8 (Homo sapiens, UniProt P10145); assay: Dose Response confirmation of uHTS small molecule hits for cystic fibrosis induced NFkb Inhibitors in a PAF-induced IL8 counterscreen.; assay type: functional; conditions: read-out: IC50_Mean
Melanocortin receptor 4 = Melanocortin receptor 4 (Homo sapiens, UniProt P32245); assay: MC4R antagonist potency on cAMP, dose response, cell-based, TR-FRET, biased antagonists (AID 602298); assay type: functional;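 further: antagonist potency against agonist-stimulated cAMP production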
[10] = nonselective inhibitors of cellular cAMP signaling, dose response, counter-screen for MC4R biased antagonist project, cell-based, TR-FRET cAMP detection (AID 602305); assay type: functional;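 further: U2OS cells stimulated with forskolin near its EC80 as the cAMP inducer; potency is for inhibition of forskolin-stimulated cAMP signaling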

Serine/threonine-protein phosphatase, sequence (B9W6M3 whole entry): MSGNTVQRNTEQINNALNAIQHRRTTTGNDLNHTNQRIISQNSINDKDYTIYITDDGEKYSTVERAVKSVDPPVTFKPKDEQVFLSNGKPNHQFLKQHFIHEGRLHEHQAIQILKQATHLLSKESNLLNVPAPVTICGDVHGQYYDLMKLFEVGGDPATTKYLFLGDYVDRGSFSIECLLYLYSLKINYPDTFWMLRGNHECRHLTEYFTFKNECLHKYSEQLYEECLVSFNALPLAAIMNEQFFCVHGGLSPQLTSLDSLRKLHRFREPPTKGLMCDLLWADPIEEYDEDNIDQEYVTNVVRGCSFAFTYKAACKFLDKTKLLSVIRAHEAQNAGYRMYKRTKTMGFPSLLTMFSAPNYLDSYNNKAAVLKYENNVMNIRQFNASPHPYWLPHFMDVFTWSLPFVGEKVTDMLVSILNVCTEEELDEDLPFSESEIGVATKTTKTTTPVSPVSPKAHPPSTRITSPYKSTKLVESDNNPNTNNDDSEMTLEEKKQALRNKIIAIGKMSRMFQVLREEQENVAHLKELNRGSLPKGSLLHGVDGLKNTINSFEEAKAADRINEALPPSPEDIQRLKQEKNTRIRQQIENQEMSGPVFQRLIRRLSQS
Cyclin-dependent kinase 8, sequence (P49336 whole entry): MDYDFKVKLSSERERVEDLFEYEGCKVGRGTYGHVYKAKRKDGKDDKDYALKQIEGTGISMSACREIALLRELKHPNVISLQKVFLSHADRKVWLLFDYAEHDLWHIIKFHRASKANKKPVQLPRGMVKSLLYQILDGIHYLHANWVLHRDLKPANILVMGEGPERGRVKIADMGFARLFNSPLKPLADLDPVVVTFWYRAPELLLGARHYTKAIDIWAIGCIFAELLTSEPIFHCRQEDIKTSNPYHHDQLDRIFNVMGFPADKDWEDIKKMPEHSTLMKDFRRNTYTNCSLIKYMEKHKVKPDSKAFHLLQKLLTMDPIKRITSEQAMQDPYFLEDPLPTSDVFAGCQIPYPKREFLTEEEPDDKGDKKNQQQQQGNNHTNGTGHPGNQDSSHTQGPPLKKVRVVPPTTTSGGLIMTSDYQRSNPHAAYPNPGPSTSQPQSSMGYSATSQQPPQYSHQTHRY
Cyclin-dependent kinase 9, sequence (P50750 whole entry): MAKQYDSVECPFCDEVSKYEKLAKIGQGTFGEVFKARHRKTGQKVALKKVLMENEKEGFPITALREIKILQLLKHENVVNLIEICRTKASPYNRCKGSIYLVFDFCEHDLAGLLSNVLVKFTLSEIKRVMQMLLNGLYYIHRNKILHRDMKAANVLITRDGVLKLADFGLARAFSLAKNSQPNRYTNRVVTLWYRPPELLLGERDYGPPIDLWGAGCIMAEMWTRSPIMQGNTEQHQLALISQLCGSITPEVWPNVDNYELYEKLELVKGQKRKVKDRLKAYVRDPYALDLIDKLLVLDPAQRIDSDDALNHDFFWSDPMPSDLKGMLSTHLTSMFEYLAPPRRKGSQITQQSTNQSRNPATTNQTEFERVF
Nuclear receptor subfamily 5 group A member 2, sequence (O00482 whole entry): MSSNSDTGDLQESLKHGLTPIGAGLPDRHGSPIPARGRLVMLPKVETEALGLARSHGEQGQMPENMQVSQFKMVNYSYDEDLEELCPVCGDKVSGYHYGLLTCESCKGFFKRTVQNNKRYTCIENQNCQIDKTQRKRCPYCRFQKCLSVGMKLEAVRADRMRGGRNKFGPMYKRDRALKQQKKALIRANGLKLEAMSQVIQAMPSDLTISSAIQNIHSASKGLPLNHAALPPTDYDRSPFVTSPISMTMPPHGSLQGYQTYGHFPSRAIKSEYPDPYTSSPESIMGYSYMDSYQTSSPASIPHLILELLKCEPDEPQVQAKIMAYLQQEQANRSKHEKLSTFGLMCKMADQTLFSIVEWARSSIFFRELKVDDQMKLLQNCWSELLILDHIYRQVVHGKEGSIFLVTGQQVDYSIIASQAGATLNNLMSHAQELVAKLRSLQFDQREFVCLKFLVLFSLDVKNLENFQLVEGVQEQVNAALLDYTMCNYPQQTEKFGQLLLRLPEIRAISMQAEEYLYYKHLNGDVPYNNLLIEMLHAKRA
Interleukin-8, sequence (P10145 whole entry): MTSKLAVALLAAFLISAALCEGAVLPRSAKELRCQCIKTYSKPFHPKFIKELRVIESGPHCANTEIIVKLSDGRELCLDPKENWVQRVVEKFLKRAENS
Cyclin-dependent kinase 7, sequence (P50613 whole entry): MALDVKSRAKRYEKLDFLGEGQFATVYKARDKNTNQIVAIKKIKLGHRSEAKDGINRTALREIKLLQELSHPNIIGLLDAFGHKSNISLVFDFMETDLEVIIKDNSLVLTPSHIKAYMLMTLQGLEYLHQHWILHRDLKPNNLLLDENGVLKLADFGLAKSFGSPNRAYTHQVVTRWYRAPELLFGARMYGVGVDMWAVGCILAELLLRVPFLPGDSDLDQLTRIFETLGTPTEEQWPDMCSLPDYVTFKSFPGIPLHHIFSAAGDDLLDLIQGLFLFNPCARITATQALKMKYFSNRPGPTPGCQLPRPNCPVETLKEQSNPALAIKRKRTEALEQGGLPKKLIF
Melanocortin receptor 4, sequence (P32245 whole entry): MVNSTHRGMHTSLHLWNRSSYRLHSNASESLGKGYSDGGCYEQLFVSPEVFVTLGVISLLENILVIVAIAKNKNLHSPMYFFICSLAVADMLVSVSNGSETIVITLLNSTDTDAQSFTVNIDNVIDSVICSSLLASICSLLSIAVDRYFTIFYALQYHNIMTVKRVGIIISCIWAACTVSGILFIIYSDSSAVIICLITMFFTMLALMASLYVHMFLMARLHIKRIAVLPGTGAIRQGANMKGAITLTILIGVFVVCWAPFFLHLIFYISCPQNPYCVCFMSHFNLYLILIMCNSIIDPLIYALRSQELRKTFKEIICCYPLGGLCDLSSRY
Steroidogenic factor 1, sequence (Q13285 whole entry): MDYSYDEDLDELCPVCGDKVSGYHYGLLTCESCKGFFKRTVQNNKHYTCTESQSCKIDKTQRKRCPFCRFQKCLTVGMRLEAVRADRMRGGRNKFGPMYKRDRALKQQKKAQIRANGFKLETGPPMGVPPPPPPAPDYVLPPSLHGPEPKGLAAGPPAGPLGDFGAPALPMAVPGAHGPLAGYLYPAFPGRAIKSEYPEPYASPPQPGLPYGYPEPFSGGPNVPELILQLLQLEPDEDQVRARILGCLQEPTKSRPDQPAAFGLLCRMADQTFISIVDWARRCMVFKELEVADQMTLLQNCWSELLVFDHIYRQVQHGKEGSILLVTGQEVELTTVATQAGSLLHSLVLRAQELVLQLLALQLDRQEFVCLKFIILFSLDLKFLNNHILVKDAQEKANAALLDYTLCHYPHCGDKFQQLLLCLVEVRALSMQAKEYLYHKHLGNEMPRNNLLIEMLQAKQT
ATP-dependent molecular chaperone HSP82, sequence (C4YTQ8 whole entry): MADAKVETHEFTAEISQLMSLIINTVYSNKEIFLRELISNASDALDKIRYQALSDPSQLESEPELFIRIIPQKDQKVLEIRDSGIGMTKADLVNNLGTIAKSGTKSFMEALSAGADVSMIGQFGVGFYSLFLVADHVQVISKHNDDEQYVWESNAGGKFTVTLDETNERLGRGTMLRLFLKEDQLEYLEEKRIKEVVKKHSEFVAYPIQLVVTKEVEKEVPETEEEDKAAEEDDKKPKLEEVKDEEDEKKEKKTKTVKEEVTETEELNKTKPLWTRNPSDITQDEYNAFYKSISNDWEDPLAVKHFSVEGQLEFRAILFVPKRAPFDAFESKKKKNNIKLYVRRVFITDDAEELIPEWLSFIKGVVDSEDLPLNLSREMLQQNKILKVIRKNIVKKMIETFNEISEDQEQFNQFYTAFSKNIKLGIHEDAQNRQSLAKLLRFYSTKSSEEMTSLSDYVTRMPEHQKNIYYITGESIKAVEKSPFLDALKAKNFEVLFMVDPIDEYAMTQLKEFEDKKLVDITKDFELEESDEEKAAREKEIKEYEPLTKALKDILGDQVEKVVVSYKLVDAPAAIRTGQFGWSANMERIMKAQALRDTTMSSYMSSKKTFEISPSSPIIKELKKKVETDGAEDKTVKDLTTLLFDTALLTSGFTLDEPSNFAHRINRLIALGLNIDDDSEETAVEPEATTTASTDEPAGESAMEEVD
Mitogen-activated protein kinase 13, sequence (O15264 whole entry): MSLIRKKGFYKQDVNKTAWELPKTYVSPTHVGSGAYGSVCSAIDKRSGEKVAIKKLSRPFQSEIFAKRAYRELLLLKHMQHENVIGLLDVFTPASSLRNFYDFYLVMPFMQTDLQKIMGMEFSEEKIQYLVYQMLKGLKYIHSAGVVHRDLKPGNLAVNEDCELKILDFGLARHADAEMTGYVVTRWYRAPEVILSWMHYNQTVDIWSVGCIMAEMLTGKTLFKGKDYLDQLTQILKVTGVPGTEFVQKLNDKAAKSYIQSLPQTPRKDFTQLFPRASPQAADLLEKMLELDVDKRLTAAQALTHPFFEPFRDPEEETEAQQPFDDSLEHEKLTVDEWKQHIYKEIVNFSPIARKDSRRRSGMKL

CCCn1nc(C(=O)Nc2nc(-c3ccccn3)cs2)c2ccccc2c1=O
AC50 [1]: 81.7 µM (active)
IC50 (H9c2): > 79 µM (inactive)

CNCc1ccc(-c2[nH]c3cc(F)cc4c3c2CCNC4=O)cc1 [RUCAPARIB]
Ki [2]: > 7.94 µM (inactive)

OCC1OC(n2cnc3cc(Cl)c(Cl)cc32)C(O)C1O (stereo not given)
Ki [3]: 2.51 µM (active)
Ki [4]: 0.126 µM (active)
Ki [5]: 2 µM (active)

O=C(c1cc(-c2ccccc2)n[nH]1)N1CCc2c([nH]c3ccccc23)C1c1ccccn1 (stereo not given)
EC50 [6]: > 180 µM (inactive)
EC50 (Streptokinase A): 26.3 µM (active)
EC50 [7]: 31.2 µM (active)

Cc1no[n+]([O-])c1COc1ccc(/C=C2\NC(=S)NC2=O)cc1
IC50 [8]: 35.9 µM (inactive)
IC50 [9]: 0.578 µM (active)
IC50 (Steroidogenic factor 1): 1.34 µM (active)

c1ccc2c(-c3cncc4ccccc34)cncc2c1
IC50 (Interleukin-8): 16 µM (inactive)

COC(=O)CSc1nnc(-c2ccc(S(=O)(=O)N3CCCCC3)cc2)o1
IC50 (Melanocortin receptor 4): > 64.6 µM (inactive)
IC50 [10]: > 64.6 µM (inactive)
